Assay results as given in patent publication US10745384B2, “Indazole derivatives as αv integrin antagonists” (BRISTOL-MYERS SQUIBB COMPANY, priority 2016, dated 2020).

Molecular target: T1, human αVβ6 (Homo sapiens, UniProt P06756+P18564)
T1 construct: purchased R & D systems 3817-AV
Experiment: human αVβ6 HTRF binding assay
Details: recombinant human αVβ6 integrin, FITC-conjugated fibronectin
Description: All binding assays used the HTRF (homogeneous time resolved fluorescence) technology from Cisbio International, therefore all assays are described as HTRF binding assays. The assay results for the Examples are listed above together with the characterization data. The HTRF binding assays are established for the following integrins: human αVβ6, human αVβ1, human αVβ3, human αVβ5, and human αVβ8. All assays used the following assay buffer: 20 mM Tris, pH 7.4, 1 mM MgCl2, 1 mM MnCl2, 0.01% Tween 20, and 0.01% BSA. Alternatively, a SPA-based assay was used for evaluation of receptor binding.
The following describes the components and a representative procedure for the human αVβ6 HTRF binding assay: Recombinant human αVβ6 Integrin (R & D systems, 3817-AV) was biotinylated. Biotinylated human αVβ6 Integrin was added to assay vessel at a final concentration of 1.25 nM. FITC-conjugated fibronectin (Cytoskeleton, FNR02) was then added at the final concentration of 5 nM. The mixture was centrifuged at 600 rpm for three minutes using Thermo Fisher Heraeus Multifuge X3 centrifuge and then incubated at room temperature for an hour. Streptavidin Terbium (Cisbio international 610STLB) was then added at the final concentration of 0.625 nM. The resulting mixture was centrifuged at 600 rpm for three minutes using Thermo Fisher Heraeus Multifuge X3 centrifuge and then incubated at room temperature overnight in dark before reading HTRF signals. […]

T1 sequence (P06756 31-992 limits assumed): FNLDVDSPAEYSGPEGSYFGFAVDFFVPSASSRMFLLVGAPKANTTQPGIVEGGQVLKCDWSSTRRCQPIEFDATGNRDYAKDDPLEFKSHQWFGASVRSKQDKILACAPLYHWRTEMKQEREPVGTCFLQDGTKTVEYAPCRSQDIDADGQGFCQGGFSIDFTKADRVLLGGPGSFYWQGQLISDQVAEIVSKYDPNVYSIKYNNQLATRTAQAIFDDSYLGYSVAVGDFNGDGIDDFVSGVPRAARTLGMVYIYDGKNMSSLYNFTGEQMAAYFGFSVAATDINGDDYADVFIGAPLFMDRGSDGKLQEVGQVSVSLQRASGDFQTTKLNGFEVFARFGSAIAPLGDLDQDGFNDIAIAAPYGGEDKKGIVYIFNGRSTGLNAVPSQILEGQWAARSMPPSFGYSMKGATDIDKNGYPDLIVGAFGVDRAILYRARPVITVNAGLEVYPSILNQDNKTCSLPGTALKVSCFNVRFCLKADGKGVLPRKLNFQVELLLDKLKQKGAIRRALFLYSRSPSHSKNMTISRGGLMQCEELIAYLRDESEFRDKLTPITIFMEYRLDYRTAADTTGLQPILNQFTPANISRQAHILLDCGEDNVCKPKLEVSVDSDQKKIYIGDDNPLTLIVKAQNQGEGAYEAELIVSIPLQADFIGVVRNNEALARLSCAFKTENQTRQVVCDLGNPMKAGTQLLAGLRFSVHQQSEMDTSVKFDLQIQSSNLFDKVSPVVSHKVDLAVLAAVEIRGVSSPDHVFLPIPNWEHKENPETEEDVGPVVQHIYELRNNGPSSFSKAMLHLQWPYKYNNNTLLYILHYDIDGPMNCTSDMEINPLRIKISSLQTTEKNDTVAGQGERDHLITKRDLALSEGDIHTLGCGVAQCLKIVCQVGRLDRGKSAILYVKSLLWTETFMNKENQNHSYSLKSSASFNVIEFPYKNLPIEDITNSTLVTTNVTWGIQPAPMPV
T1 sequence (P18564 22-707 limits assumed): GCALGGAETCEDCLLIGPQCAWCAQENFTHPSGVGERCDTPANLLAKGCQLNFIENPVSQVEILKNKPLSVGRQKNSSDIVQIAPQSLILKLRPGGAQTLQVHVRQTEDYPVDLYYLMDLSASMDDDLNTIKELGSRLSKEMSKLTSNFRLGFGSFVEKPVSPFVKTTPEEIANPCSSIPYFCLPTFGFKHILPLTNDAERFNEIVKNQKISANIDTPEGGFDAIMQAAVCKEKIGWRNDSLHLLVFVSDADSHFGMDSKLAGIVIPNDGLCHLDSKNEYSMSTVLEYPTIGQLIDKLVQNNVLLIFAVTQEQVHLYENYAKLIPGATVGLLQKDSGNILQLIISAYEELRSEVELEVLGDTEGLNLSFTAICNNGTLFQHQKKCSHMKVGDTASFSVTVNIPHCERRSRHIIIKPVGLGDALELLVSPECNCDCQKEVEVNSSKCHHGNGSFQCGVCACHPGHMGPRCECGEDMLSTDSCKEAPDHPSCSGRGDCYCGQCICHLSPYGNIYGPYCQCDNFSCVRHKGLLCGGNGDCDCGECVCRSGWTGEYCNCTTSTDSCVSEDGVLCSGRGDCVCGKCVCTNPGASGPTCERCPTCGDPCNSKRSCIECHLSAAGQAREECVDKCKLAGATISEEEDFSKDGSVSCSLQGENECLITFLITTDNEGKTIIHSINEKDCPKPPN

IC50 [nM]	SMILES
6000	Cc1ncc([C@@H](CC(=O)O)n2ncc3cc(OCCc4ccc5c(n4)N[C@H](C)CC5)ccc32)cn1 (single isomer, unassigned) [Example 175]
33	Cc1ncc([C@H](CC(=O)O)n2ncc3cc(OCCc4ccc5c(n4)N[C@H](C)CC5)ccc32)cn1 (single isomer, unassigned) [Example 176]
5000	Cc1ncc([C@@H](CC(=O)O)n2ncc3cc(OCCc4ccc5c(n4)N[C@@H](C)CC5)ccc32)cn1 (single isomer, unassigned) [Example 177]
110	Cc1ncc([C@H](CC(=O)O)n2ncc3cc(OCCc4ccc5c(n4)N[C@@H](C)CC5)ccc32)cn1 (single isomer, unassigned) [Example 178]
1600	COc1ccc(C(CC(=O)O)n2ncc3c(CCCc4ccc5c(n4)NCCC5)cccc32)cn1 (stereo not shown) [Example 1, 3-(6-Methoxypyridin-3-yl)-3-(4-(3-(5,6,7,8-tetrahydro-1,8-naphthyridin-2-yl)propyl)-1H-indazol-1-yl)propanoic acid]
110	COc1ccc(C(CC(=O)O)n2ncc3cc(CCc4ccc5c(n4)NCCC5)ccc32)cn1 (stereo not shown) [Example 2, 3-(6-Methoxypyridin-3-yl)-3-(5-(2-(5,6,7,8-tetrahydro-1,8-naphthyridin-2-yl)ethyl)-1H-indazol-1-yl)propanoic acid]
2300	COc1ccc(C(CC(=O)O)n2ncc3c(OCCc4ccc5c(n4)NCCC5)cccc32)cn1 (stereo not shown) [Example 3, 3-(6-Methoxypyridin-3-yl)-3-(4-(2-(5,6,7,8-tetrahydro-1,8-naphthyridin-2-yl)ethoxy)-1H-indazol-1-yl)propanoic acid]
21	O=C(N[C@@H](Cn1cc2cc(OCCc3ccc4c(n3)NCCC4)ccc2n1)C(=O)O)OCc1ccccc1 [Example 4, (S)-2-(((Benzyloxy)carbonyl)amino)-3-(5-(2-(5,6,7,8-tetrahydro-1,8-naphthyridin-2-yl)ethoxy)-2H-indazol-2-yl)propanoic acid]
440	O=C(O)CC(c1ccccc1)n1ncc2cc(OCCCc3ccc4c(n3)NCCC4)ccc21 (stereo not shown) [Example 5, 3-Phenyl-3-(5-(3-(5,6,7,8-tetrahydro-1,8-naphthyridin-2-yl)propoxy)-1H-indazol-1-yl)propanoic acid]
600	COc1ccc([C@H](CC(=O)O)n2cc3cc(OCCc4ccc5c(n4)NCCC5)ccc3n2)cn1 [Example 6, (S)-3-(6-Methoxypyridin-3-yl)-3-(5-(2-(5,6,7,8-tetrahydro-1,8-naphthyridin-2-yl)ethoxy)-2H-indazol-2-yl)propanoic acid]
6.6	COc1ccc([C@H](CC(=O)O)n2cc3ccc(CCc4ccc5c(n4)NCCC5)cc3n2)cn1 [Example 7, (S)-3-(6-Methoxypyridin-3-yl)-3-(6-(2-(5,6,7,8-tetrahydro-1,8-naphthyridin-2-yl)ethyl)-2H-indazol-2-yl)propanoic acid]
390	COc1ccc([C@H](CC(=O)O)n2cc3ccc(Cc4cc5c(nc4C)NCCC5)cc3n2)cn1 [Example 8, (S)-3-(6-Methoxypyridin-3-yl)-3-(6-((2-methyl-5,6,7,8-tetrahydro-1,8-naphthyridin-3-yl)methyl)-2H-indazol-2-yl)propanoic acid]
2.6	COc1ccc([C@H](CC(=O)O)n2cc3ccc(CCCc4ccc5c(n4)NCCC5)cc3n2)cn1 [Example 9, (S)-3-(6-Methoxypyridin-3-yl)-3-(6-(3-(5,6,7,8-tetrahydro-1,8-naphthyridin-2-yl)propyl)-2H-indazol-2-yl)propanoic acid]
160	COc1ccc([C@H](CC(=O)O)n2cc3ccc(CCc4cc5c(nc4C)NCCC5)cc3n2)cn1 [Example 10, (S)-3-(6-Methoxypyridin-3-yl)-3-(6-(2-(2-methyl-5,6,7,8-tetrahydro-1,8-naphthyridin-3-yl)ethyl)-2H-indazol-2-yl)propanoic acid]
120	COc1ccc(C(CC(=O)O)n2ncc3nc(OCCc4ccc5c(n4)NCCC5)ccc32)cn1 (stereo not shown) [Example 11, 3-(6-Methoxypyridin-3-yl)-3-(5-(2-(5,6,7,8-tetrahydro-1,8-naphthyridin-2-yl)ethoxy)pyrazolo[4,3-b]pyridin-1-yl)propanoic acid]
2000	COc1ccc(C(CC(=O)O)n2ncc3cc(OCCNC4=NCCN4)ccc32)cn1 (stereo not shown) [Example 12, 3-(5-(2-((4,5-Dihydroimidazol-2-yl)amino)ethoxy)-1H-indazol-1-yl)-3-(6-methoxypyridin-3-yl)propanoic acid]

IC50 [nM]	SMILES
320	Cc1cc(C)c(S(=O)(=O)NC(Cn2ncc3cc(OCCc4ccc5c(n4)NCCC5)ccc32)C(=O)O)c(C)c1 (stereo not shown) [Example 13, 3-(5-(2-(5,6,7,8-Tetrahydro-1,8-naphthyridin-2-yl)ethoxy)-1H-indazol-1-yl)-2-((2,4,6-trimethylphenyl)sulfonamido)propanoic acid]
300	O=C(NC(Cn1ncc2cc(OCCc3ccc4c(n3)NCCC4)ccc21)C(=O)O)OCc1ccccc1 (stereo not shown) [Example 14, 2-(((Benzyloxy)carbonyl)amino)-3-(5-(2-(5,6,7,8-tetrahydro-1,8-naphthyridin-2-yl)ethoxy)-1H-indazol-1-yl)propanoic acid]
137	O=C(O)C[C@H](c1cnc2ccccc2n1)n1ncc2cc(OCCc3ccc4c(n3)NCCC4)ccc21 [Example 16, (R)-3-(Quinoxalin-2-yl)-3-(5-(2-(5,6,7,8-tetrahydro-1,8-naphthyridin-2-yl)ethoxy)-1H-indazol-1-yl)propanoic acid]
2700	O=C(O)CC(c1cc(Cl)cc(Cl)c1)n1ncc2c(CCCc3ccc4c(n3)NCCC4)cccc21 (stereo not shown) [Example 18, 3-(3,5-Dichlorophenyl)-3-(4-(3-(5,6,7,8-tetrahydro-1,8-naphthyridin-2-yl)propyl)-1H-indazol-1-yl)propanoic acid]
220	O=C(O)CC(c1cnc2ccccc2n1)n1ncc2c(CCCc3ccc4c(n3)NCCC4)cccc21 (stereo not shown) [Example 19, 3-(Quinoxalin-2-yl)-3-(4-(3-(5,6,7,8-tetrahydro-1,8-naphthyridin-2-yl)propyl)-1H-indazol-1-yl)propanoic acid]
70	COc1ccc(C(CC(=O)O)n2ncc3cc(CCCc4ccc5c(n4)NCCC5)ccc32)cn1 (stereo not shown) [Example 20, 3-(6-Methoxypyridin-3-yl)-3-(5-(3-(5,6,7,8-tetrahydro-1,8-naphthyridin-2-yl)propyl)-1H-indazol-1-yl)propanoic acid]
44	O=C(O)CC(c1cc(Cl)cc(Cl)c1)n1ncc2cc(CCCc3ccc4c(n3)NCCC4)ccc21 (stereo not shown) [Example 21, 3-(3,5-Dichlorophenyl)-3-(5-(3-(5,6,7,8-tetrahydro-1,8-naphthyridin-2-yl)propyl)-1H-indazol-1-yl)propanoic acid]
190	O=C(O)CC(c1cnc2ccccc2n1)n1ncc2cc(CCCc3ccc4c(n3)NCCC4)ccc21 (stereo not shown) [Example 22, 3-(Quinoxalin-2-yl)-3-(5-(3-(5,6,7,8-tetrahydro-1,8-naphthyridin-2-yl)propyl)-1H-indazol-1-yl)propanoic acid]
61	CN(C)C(=O)c1cccc(C(CC(=O)O)n2ncc3cc(CCCc4ccc5c(n4)NCCC5)ccc32)c1 (stereo not shown) [Example 23, 3-(3-(Dimethylcarbamoyl)phenyl)-3-(5-(3-(5,6,7,8-tetrahydro-1,8-naphthyridin-2-yl)propyl)-1H-indazol-1-yl)propanoic acid]
130	CN(C)C(=O)c1cccc(C(CC(=O)O)n2ncc3cc(CCc4ccc5c(n4)NCCC5)ccc32)c1 (stereo not shown) [Example 24, 3-(3-(Dimethylcarbamoyl)phenyl)-3-(5-(2-(5,6,7,8-tetrahydro-1,8-naphthyridin-2-yl)ethyl)-1H-indazol-1-yl)propanoic acid]
530	O=C(O)CC(c1ccc2c(c1)oc1ccccc12)n1ncc2cc(CCc3ccc4c(n3)NCCC4)ccc21 (stereo not shown) [Example 25, 3-(Dibenzo[b,d]furan-3-yl)-3-(5-(2-(5,6,7,8-tetrahydro-1,8-naphthyridin-2-yl)ethyl)-1H-indazol-1-yl)propanoic acid]
120	CN(C)Cc1cccc(C(CC(=O)O)n2ncc3cc(CCc4ccc5c(n4)NCCC5)ccc32)c1 (stereo not shown) [Example 26, 3-(3-((Dimethylamino)methyl)phenyl)-3-(5-(2-(5,6,7,8-tetrahydro-1,8-naphthyridin-2-yl)ethyl)-1H-indazol-1-yl)propanoic acid]
240	O=C(O)CC(c1cnc2ccccc2n1)n1ncc2cc(CCc3ccc4c(n3)NCCC4)ccc21 (stereo not shown) [Example 27, 3-(Quinoxalin-2-yl)-3-(5-(2-(5,6,7,8-tetrahydro-1,8-naphthyridin-2-yl)ethyl)-1H-indazol-1-yl)propanoic acid]
210	O=C(O)CC(c1cc(Cl)cc(Cl)c1)n1ncc2cc(CCc3ccc4c(n3)NCCC4)ccc21 (stereo not shown) [Example 28, 3-(3,5-Dichlorophenyl)-3-(5-(2-(5,6,7,8-tetrahydro-1,8-naphthyridin-2-yl)ethyl)-1H-indazol-1-yl)propanoic acid]
1500	CN(C)C(=O)c1cccc(C(CC(=O)O)n2ncc3c(OCCc4ccc5c(n4)NCCC5)cccc32)c1 (stereo not shown) [Example 29, 3-(3-(Dimethylcarbamoyl)phenyl)-3-(4-(2-(5,6,7,8-tetrahydro-1,8-naphthyridin-2-yl)ethoxy)-1H-indazol-1-yl)propanoic acid]
